What was measured:
Experiment in all cases: Bliss excess, mean over the matrix (fraction); higher = more synergy
[1] = system: COLO-205 (Colorectal Carcinoma)
In short: (§1)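 Cell lines grown in DMEM/F12 or RPMI with 10% FBS were plated in 1536-well plates and held 24 hours at 37°C, 5% CO2 before 72 hours of exposure to two-drug dose matrices, with DMSO typically at 0.2%. CellTiter-Glo 2.0 luminescence gave viability, which was converted to inhibition. Vehicle wells were set to 0 and blank wells to 1. Combination Emax is the second-highest inhibition in the matrix, and Bliss excess is the observed combination effect minus the expected EA + EB − EA·EB, where EA and EB are the single-agent effects.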

[2] = system: SNU-5 (Gastric Carcinoma)
In short: as §1

[3] = system: CaR-1 (Colorectal Carcinoma)
In short: as §1

[4] = system: HuP-T4 (Pancreatic Carcinoma)
In short: as §1

[5] = system: OVCA420 (Ovarian Carcinoma)
In short: as §1

[6] = system: TE-15 (Esophageal Squamous Cell Carcinoma)
In short: as §1

[7] = system: NCI-H2085 (Non-Small Cell Lung Carcinoma)
In short: as §1

NB10 (Neuroblastoma) = system: NB10 (Neuroblastoma)
In short: as §1

[8] = system: LU-135 (Small Cell Lung Carcinoma)
In short: as §1

T98G (Glioblastoma) = system: T98G (Glioblastoma)
In short: as §1

[9] = system: LB831-BLC (Bladder Carcinoma)
In short: as §1

HOS (Osteosarcoma) = system: HOS (Osteosarcoma)
In short: as §1

[10] = system: Daoy (Other Solid Carcinomas)
In short: as §1

[11] = system: CCRF-CEM (T-Lymphoblastic Leukemia)
In short: as §1

[12] = system: KP-1N (Pancreatic Carcinoma)
In short: as §1

[13] = system: HCC-78 (Lung Adenocarcinoma)
In short: as §1

[14] = system: RC-K8 (B-Cell Non-Hodgkin's Lymphoma)
In short: as §1

[15] = system: HT-1376 (Bladder Carcinoma)
In short: as §1

[16] = system: EC-GI-10 (Esophageal Squamous Cell Carcinoma)
In short: as §1

NOS-1 (Osteosarcoma) = system: NOS-1 (Osteosarcoma)
In short: as §1

| SMILES | Bliss excess [1] | Bliss excess [2] | Bliss excess [3] | Bliss excess [4] | Bliss excess [5] | Bliss excess [6] | Bliss excess [7] | Bliss excess (NB10 (Neuroblastoma)) | Bliss excess [8] | Bliss excess (T98G (Glioblastoma)) | Bliss excess [9] | Bliss excess (HOS (Osteosarcoma)) | Bliss excess [10] | Bliss excess [11] | Bliss excess [12] | Bliss excess [13] | Bliss excess [14] | Bliss excess [15] | Bliss excess [16] | Bliss excess (NOS-1 (Osteosarcoma)) |
| --- | --- | --- | --- | --- | --- | --- | --- | --- | --- | --- | --- | --- | --- | --- | --- | --- | --- | --- | --- | --- |
| CN(CCO)CC[C@H](CSc1ccccc1)Nc1ccc(S(=O)(=O)NC(=O)c2ccc(N3CCC([C@@H](O)c4ccccc4-c4ccc(Cl)cc4)CC3)cc2)cc1S(=O)(=O)C(F)(F)F [AZD4320] + CCN(CCO)CCCOc1ccc2c(Nc3cc(CC(=O)Nc4cccc(F)c4)[nH]n3)ncnc2c1 [AZD2811] (first compound max 1 µM, 7x7, partner max 1 µM) | -0.0154 | -0.0115 | -0.0753 | -0.0427 | -0.0352 | -0.0393 | -0.0145 | -0.0097 | -0.0124 | 0.0346 | 0.0234 | -0.0288 | 0.0245 | -0.0228 | -0.0317 | -0.0361 | 0.17 | 0.026 | 0.0532 | 0.0616 |
| CN(CCO)CC[C@H](CSc1ccccc1)Nc1ccc(S(=O)(=O)NC(=O)c2ccc(N3CCC([C@@H](O)c4ccccc4-c4ccc(Cl)cc4)CC3)cc2)cc1S(=O)(=O)C(F)(F)F [AZD4320] + CN(C)CCCOc1ccc(-c2ccc3ncc4c(c3c2)n(C2CCOCC2)c(=O)n4C)cn1 [AZD0156] (first compound max 1 µM, 7x7, partner max 1 µM) | -0.054 | 0.0286 | -0.0727 | -0.0268 | -0.0206 | -0.0455 | -0.0242 | -0.0056 | 0.0332 | -0.044 | -0.0403 | -0.0317 | 0.0118 | 0.023 | -0.0481 | -0.033 | 0.0161 | -0.03 | -0.0333 | 0.0203 |
| CN(CCO)CC[C@H](CSc1ccccc1)Nc1ccc(S(=O)(=O)NC(=O)c2ccc(N3CCC([C@@H](O)c4ccccc4-c4ccc(Cl)cc4)CC3)cc2)cc1S(=O)(=O)C(F)(F)F [AZD4320] + C[C@@H]1COCCN1C2=NC(=NC(=C2)C3(CC3)[S@](=N)(=O)C)C4=C5C=CNC5=NC=C4 [AZD6738] (first compound max 1 µM, 7x7, partner max 10 µM) | -0.0575 | 0.0061 | 0.0178 | 0.0013 | 0.006 | -0.041 | -0.0912 | -0.0515 | 0.0417 | -0.0468 | -0.0415 | 0.0111 | 0.0178 | 0.0394 | -0.0135 | -0.0564 | -0.011 | 0.0078 | -0.0341 | 0.038 |
| CN(CCO)CC[C@H](CSc1ccccc1)Nc1ccc(S(=O)(=O)NC(=O)c2ccc(N3CCC([C@@H](O)c4ccccc4-c4ccc(Cl)cc4)CC3)cc2)cc1S(=O)(=O)C(F)(F)F [AZD4320] + C[C@@H](Nc1cc(F)cc(F)c1)c1cc(C(=O)N(C)C)cc2c(=O)cc(N3CCOCC3)oc12 [AZD8186] (first compound max 1 µM, 7x7, partner max 3 µM) | -0.0302 | 0.0726 | -0.0193 | 0.0664 | 0.002 | -0.0335 | -0.0231 | -0.0357 | 0.0404 | 0.0151 | 0.0441 | 0.0607 | -0.0261 | 0.0013 | 0.0059 | 0.003 | -0.015 | -0.0224 | 0.0191 | -0.0096 |
| CN(CCO)CC[C@H](CSc1ccccc1)Nc1ccc(S(=O)(=O)NC(=O)c2ccc(N3CCC([C@@H](O)c4ccccc4-c4ccc(Cl)cc4)CC3)cc2)cc1S(=O)(=O)C(F)(F)F [AZD4320] + Cc1cc2ncnn2cc1Nc1ncc2c(n1)n(C1CCOCC1)c(=O)n2C [AZD7648] (first compound max 1 µM, 7x7, partner max 10 µM) | -0.0132 | -0.0151 | -0.04 | -0.0439 | -0.0436 | -0.046 | -0.0399 | -0.0281 | 0.0109 | -0.0493 | 0.0041 | -0.0225 | -0.042 | 0.0282 | -0.0588 | -0.0227 | 0.0198 | -0.17 | -0.0397 | 0.0375 |
| CN(CCO)CC[C@H](CSc1ccccc1)Nc1ccc(S(=O)(=O)NC(=O)c2ccc(N3CCC([C@@H](O)c4ccccc4-c4ccc(Cl)cc4)CC3)cc2)cc1S(=O)(=O)C(F)(F)F [AZD4320] + Cn1cnc2c(F)c(Nc3ccc(Br)cc3Cl)c(C(=O)NOCCO)cc21 [Selumetinib] (first compound max 1 µM, 7x7, partner max 3 µM) | 0.026 | 0.118 | -0.0573 | 0.0393 | 0.0225 | -0.0391 | 0.032 | 0 | 0.0266 | 0.0206 | -0.0298 | 0.0245 | 0.129 | 0.0099 | -0.0277 | 0.0491 | 0.0467 | 0.0297 | 0.0802 | 0.0796 |
| COc1nnc2ccc(N3CCC(c4ccc(OCCN5CCN(C)C(=O)[C@H]5C)cc4)CC3)nn12 [AZD5153] + C=CCn1c(=O)c2cnc(Nc3ccc(N4CCN(C)CC4)cc3)nc2n1-c1cccc(C(C)(C)O)n1 [AZD1775] (first compound max 1 µM, partner max 1 µM) | -0.0529 | -0.0759 | -0.0267 | -0.0435 | -0.0589 | -0.001 | -0.0223 | -0.0727 | -0.004 | -0.0092 | -0.0157 | -0.0504 | -0.0196 | -0.019 | 0.0464 | -0.055 | -0.101 | 0.0053 | -0.0813 | -0.0371 |
| COc1nnc2ccc(N3CCC(c4ccc(OCCN5CCN(C)C(=O)[C@H]5C)cc4)CC3)nn12 [AZD5153] + CC1(C)CCC(CN2CCN(c3ccc(C(=O)NS(=O)(=O)c4ccc(NCC5CCOCC5)c([N+](=O)[O-])c4)c(Oc4cnc5[nH]ccc5c4)c3)CC2)=C(c2ccc(Cl)cc2)C1 [Venetoclax] (first compound max 1 µM, 7x7, partner max 1 µM) | -0.0745 | -0.0754 | -0.0643 | -0.0457 | -0.0527 | -0.0698 | -0.0655 | -0.0566 | -0.001 | -0.0115 | -0.0627 | -0.0508 | -0.0568 | -0.0742 | -0.0714 | -0.0448 | -0.0587 | -0.0305 | -0.118 | -0.0078 |
| COc1nnc2ccc(N3CCC(c4ccc(OCCN5CCN(C)C(=O)[C@H]5C)cc4)CC3)nn12 [AZD5153] + CCN(CCO)CCCOc1ccc2c(Nc3cc(CC(=O)Nc4cccc(F)c4)[nH]n3)ncnc2c1 [AZD2811] (first compound max 1 µM, 7x7, partner max 1 µM) | -0.0595 | -0.0501 | -0.0663 | -0.0595 | -0.0547 | -0.0535 | -0.0594 | -0.0289 | -0.0449 | -0.014 | -0.0647 | -0.0093 | -0.0369 | -0.0407 | -0.0273 | -0.0314 | 0.0154 | -0.0381 | -0.0142 | -0.0391 |
| COc1nnc2ccc(N3CCC(c4ccc(OCCN5CCN(C)C(=O)[C@H]5C)cc4)CC3)nn12 [AZD5153] + C[C@@H]1COCCN1C2=NC(=NC(=C2)C3(CC3)[S@](=N)(=O)C)C4=C5C=CNC5=NC=C4 [AZD6738] (first compound max 1 µM, 7x7, partner max 10 µM) | -0.0115 | -0.0128 | 0.0411 | -0.028 | -0.0057 | -0.0096 | 0.0107 | 0.0214 | 0.0397 | -0.0206 | 0.0393 | -0.0413 | -0.0356 | -0.0178 | 0.131 | -0.0235 | -0.0424 | -0.0006 | 0.0203 | 0.0006 |
| COc1nnc2ccc(N3CCC(c4ccc(OCCN5CCN(C)C(=O)[C@H]5C)cc4)CC3)nn12 [AZD5153] + Cc1c2c(nn1C)CSCc1cc(n(C)n1)CSc1cc(c3ccccc3c1)OCCCc1c(C(=O)O)n(C)c3c-2c(Cl)ccc13 [AZD5991] (first compound max 1 µM, 7x7, partner max 1 µM) | -0.0303 | -0.0069 | -0.0548 | -0.0461 | -0.0933 | -0.0124 | -0.0081 | -0.0446 | 0.0517 | 0.0021 | -0.0588 | 0.0009 | -0.0133 | -0.0035 | -0.0176 | -0.0184 | -0.0446 | -0.0135 | 0.0527 | 0.0399 |
| COc1nnc2ccc(N3CCC(c4ccc(OCCN5CCN(C)C(=O)[C@H]5C)cc4)CC3)nn12 [AZD5153] + Cn1cnc2c(F)c(Nc3ccc(Br)cc3Cl)c(C(=O)NOCCO)cc21 [Selumetinib] (first compound max 1 µM, 7x7, partner max 10 µM) | 0.0422 | -0.0254 | 0.0208 | 0.0621 | 0.0303 | 0.0225 | 0.027 | -0.0687 | -0.0138 | 0.0403 | -0.0446 | 0.0429 | -0.0253 | -0.0015 | -0.0417 | 0.0035 | -0.048 | 0.0081 | 0.0858 | 0.066 |
| Cc1c2c(nn1C)CSCc1cc(n(C)n1)CSc1cc(c3ccccc3c1)OCCCc1c(C(=O)O)n(C)c3c-2c(Cl)ccc13 [AZD5991] + C1CN(CCC1(C(=O)N[C@@H](CCO)C2=CC=C(C=C2)Cl)N)C3=NC=NC4=C3C=CN4 [Capivasertib] (first compound max 1 µM, 7x7, partner max 3 µM) | -0.023 | 0.0135 | -0.0295 | 0.0085 | 0.0186 | -0.0196 | -0.0334 | -0.0316 | -0.0112 | -0.0178 | 0.0133 | -0.0083 | 0.0248 | 0.0618 | 0.0154 | 0.0056 | -0.03 | -0.01 | 0.0589 | 0.0511 |
